Test results reported in patent US11311565B2, “Synergistic nutritional compositions for promoting axonal regeneration” (CELAGENEX RESEARCH (INDIA) PVT. LTD., priority 2020, dated 2022).

Tests used:
Type in all cases: in vivo, Swiss albino mice
[1] = test system: axons crossing denervated side; test: SCI animal study: subjects with >1000 axons crossing denervated side; settings: animals subjected to SCI; % subjects
Excerpt: (§1) The purpose of this study is to evaluate the effect of the test substance in Swiss albino rats.
(§2) No. of animals: 30 Animals (5 groups of 6 animals each)
(§3) Group 1 is placebo, Group 2 was given a standard treatment of antithrombotic, antiepileptic, anti-inflammatory and steroid protocol (methylprednisolone) and Group 3, Group 4 and Group 5 served as test substance. Animals were subjected to SCI and outcome measures were monitored.
4. Subjects with >1000 axons crossing denervated side—as % subjects

[2] = test system: GAP-43; test: SCI animal study: fold increase in plasticity protein GAP-43; settings: animals subjected to SCI, 6 animals per group
Excerpt: as §1, §2, §3

[3] = test system: BDNF; test: SCI animal study: fold increase in plasticity protein BDNF; settings: animals subjected to SCI, 6 animals per group
Excerpt: as §1, §2, §3

[4] = test system: NGF; test: SCI animal study: fold increase in plasticity protein NGF; settings: animals subjected to SCI, 6 animals per group
Excerpt: as §1, §2, §3

[5] = test system: NTF3; test: SCI animal study: fold increase in plasticity protein NTF3; settings: animals subjected to SCI, 6 animals per group
Excerpt: as §1, §2, §3

[6] = test system: animals subjected to SCI; test: SCI animal study: improvement of limb movements; settings: baseline is 1
Excerpt: as §1, §2, §3

Question: `N=C(N)NCCCCN.O=S(=O)(O)O` [Test II, Agmatine Sulphate] was tested. Which “percentage of subjects with >1000 axons crossing denervated side” value [1] did it give?
Answer: 18%

Question: And the “No. of fold increase in plasticity proteins from baseline: GAP-43” value [2]?
Answer: 3.44 fold

Question: What about the “No. of fold increase in plasticity proteins from baseline: BDNF” value [3] of the same molecule?
Answer: 2.44 fold

Question: What about the “No. of fold increase in plasticity proteins from baseline: NGF” value [4] of the same molecule?
Answer: 1.69 fold

Question: And the “No. of fold increase in plasticity proteins from baseline: NTF3” value [5]?
Answer: 1.17 fold

Question: What about the “Percentage improvement of limb movements to baseline (Baseline as 1)” value [6] of the same molecule?
Answer: 0.34
